# In US20100137275A1 (IPSEN PHARMA S.A.S., priority 2007, published 2010):
# Legend:
# [1] = biological target: T1, purified recombinant Cdc25-C enzyme (MBP-Cdc25C protein) (Homo sapiens, UniProt P30307); experiment: Phosphatase activity of the purified recombinant Cdc25C enzyme (OMFP dephosphorylation, fluorescence); assay type: biochemical; conditions: OMFP 500 μM, 4 hours at 30° C.
# T1 construct: made in house
# T1 sequence (P30307 1-473): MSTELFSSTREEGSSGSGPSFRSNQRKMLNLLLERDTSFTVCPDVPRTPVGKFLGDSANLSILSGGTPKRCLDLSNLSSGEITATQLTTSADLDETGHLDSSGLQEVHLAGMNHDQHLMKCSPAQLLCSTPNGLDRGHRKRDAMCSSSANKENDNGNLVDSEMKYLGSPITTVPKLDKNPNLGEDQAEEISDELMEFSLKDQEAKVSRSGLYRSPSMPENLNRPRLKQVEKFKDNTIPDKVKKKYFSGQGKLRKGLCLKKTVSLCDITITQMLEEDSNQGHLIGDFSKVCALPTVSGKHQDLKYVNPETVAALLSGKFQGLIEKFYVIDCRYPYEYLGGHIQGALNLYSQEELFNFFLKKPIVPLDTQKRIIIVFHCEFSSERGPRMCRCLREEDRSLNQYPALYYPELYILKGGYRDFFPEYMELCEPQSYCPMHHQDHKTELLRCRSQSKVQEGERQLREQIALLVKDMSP
# Protocol: The phosphatase activity of the MBP-Cdc25C protein is evaluated through its dephosphorylation of 3-O-methylfluorescein-phosphate (OMFP) to form 3-O-methylfluorescein (OMF), determining the fluorescence of the reaction product at 475 nm. This assay can be used to identify inhibitors of the recombinant Cdc25 enzyme. The preparation of the MBP-Cdc25C fusion protein is described in patent application PCT WO 01/44467.
# The reaction is performed in 384-well plates in a final volume of 50 μl. The MBP-Cdc25C protein (prepared as described hereinabove) is stored in the following elution buffer: 20 mM Tris-HCl pH 7.4; 250 mM NaCl; 1 mM EDTA; 1 mM dithiothreitol (DTT); 10 mM maltose. It is diluted to a concentration of 60 μM in the following reaction buffer: 50 mM Tris-HCl pH 8.2; 50 mM NaCl; 1 mM DTT; 20% glycerol. The background noise is determined using with the buffer without addition of the enzyme. The products are tested at decreasing concentrations from 40 μM. The reaction is initiated by the addition of a solution OMFP to a final concentration of 500 μM (prepared immediately before use from a 12.5 mM stock solution in 100% DMSO (Sigma #M2629)). After 4 hours at 30° C. in a disposable 384-well plate, the fluorescence measured at OD 475 nm is read on a Victor^2 plate reader (EGG-Wallac). The concentration that produces 50% inhibition of the enzyme reaction is calculated from three independent experiments. Only the values that fall within the linear part of the sigmoid curve are used for the linear regression analysis.
Compound,melting point,IC50 [1]
CN(CCCNC(=O)Nc1ccc(Cl)c(C(F)(F)F)c1)CCCNc1cc(N2CCCC2)nc(N2CCCC2)n1.Cl,115 to 117 °C,–
CN(CCNC(=S)Nc1ccc(Cl)cc1)CCNc1cc(N2CCCC2)nc(N2CCCC2)n1.Cl,211 to 213 °C,–
"CN(CCN)CCNc1cc(N2CCCC2)nc(N2CCCC2)n1 [Example 1, N-{2-[(2,6-dipyrrolidin-1-ylpyrimidin-4-yl)amino]ethyl}-N-methylethane-1,2-diamine]",67 to 69 °C,≤ 5 µM
"CN(CCCN)CCCNc1cc(N2CCCC2)nc(N2CCCC2)n1 [Example 2, N-(3-aminopropyl)-N′-(2,6-dipyrrolidin-1-ylpyrimidin-4-yl)-N-methylpropane-1,3-diamine]",–,≤ 5 µM
"CNCCCN(C)CCCN(C)c1cc(N2CCCC2)nc(N2CCCC2)n1 [Example 3, N-(2,6-dipyrrolidin-1-ylpyrimidin-4-yl)-N,N′-dimethyl-N′-[3-(methylamino)propyl]propane-1,3-diamine]",–,≤ 5 µM
"NCCCCCNc1cc(N2CCCC2)nc(N2CCCC2)n1 [Example 4, N-(2,6-dipyrrolidin-1-ylpyrimidin-4-yl)pentane-1,5-diamine]",–,≤ 5 µM
"CN(C)CCCCCNc1cc(N2CCCC2)nc(N2CCCC2)n1 [Example 5, N′-(2,6-dipyrrolidin-1-ylpyrimidin-4-yl)-N,N-dimethylpentane-1,5-diamine]",–,≤ 5 µM
"CCN(CC)CCCCCNc1cc(N2CCCC2)nc(N2CCCC2)n1 [Example 6, N′-(2,6-dipyrrolidin-1-ylpyrimidin-4-yl)-N,N-diethylpentane-1,5-diamine]",–,≤ 5 µM
"CN(CCNC(=O)Nc1ccc(Cl)c(C(F)(F)F)c1)CCNc1cc(N2CCCC2)nc(N2CCCC2)n1 [Example 7, N-[4-chloro-3-(trifluoromethyl)phenyl]-N′-{2-[{2-[(2,6-dipyrrolidin-1-ylpyrimidin-4-yl)amino]ethyl}(methyl)amino]ethyl}urea]",–,≤ 1 µM
"CN(CCNC(=O)NCc1ccccc1)CCNc1cc(N2CCCC2)nc(N2CCCC2)n1 [Example 8, N-benzyl-N′-{2-[{2-[(2,6-dipyrrolidin-1-ylpyrimidin-4-yl)amino]ethyl}(methyl)amino]ethyl}urea]",87 to 89 °C,≤ 5 µM
"CN(CCNC(=O)NC(C)(C)C)CCNc1cc(N2CCCC2)nc(N2CCCC2)n1 [Example 9, N-(tert-butyl)-N′-{2-[{2-[(2,6-dipyrrolidin-1-ylpyrimidin-4-yl)amino]ethyl}(methyl)amino]ethyl}urea]",107 to 109 °C,≤ 5 µM
"CN(CCNc1cc(N2CCCC2)nc(N2CCCC2)n1)CCN(C(N)=O)[C@@H]1CCc2ccccc2C1 [Example 11, N-{2-[{2-[(2,6-dipyrrolidin-1-ylpyrimidin-4-yl)amino]ethyl}(methyl)amino]ethyl}-N-[(2R)-1,2,3,4-tetrahydronaphthalen-2-yl]urea]",93 to 95 °C,–
"CN(CCNC(=O)NC1CCCC1)CCNc1cc(N2CCCC2)nc(N2CCCC2)n1 [Example 12, N-cyclopentyl-N′-{2-[{2-[(2,6-dipyrrolidin-1-ylpyrimidin-4-yl)amino]ethyl}(methyl)amino]ethyl}urea]",119 to 121 °C,≤ 5 µM
"Cc1noc(C)c1NC(=O)NCCN(C)CCNc1cc(N2CCCC2)nc(N2CCCC2)n1 [Example 13, N-(3,5-dimethylisoxazol-4-yl)-N′-{2-[{2-[(2,6-dipyrrolidin-1-ylpyrimidin-4-yl)amino]ethyl}(methyl)amino]ethyl}urea]",95 to 97 °C,≤ 1 µM
"CN(CCNC(=O)NCc1ccco1)CCNc1cc(N2CCCC2)nc(N2CCCC2)n1 [Example 14, N-{2-[{2-[(2,6-dipyrrolidin-1-ylpyrimidin-4-yl)amino]ethyl}(methyl)amino]ethyl}-N′-(2-furylmethyl)urea]",103 to 105 °C,≤ 1 µM
"CCN(CCN(C)CCNc1cc(N2CCCC2)nc(N2CCCC2)n1)C(N)=O [Example 18, N-{2-[{2-[(2,6-dipyrrolidin-1-ylpyrimidin-4-yl)amino]ethyl}(methyl)amino]ethyl}-N-ethylurea]",127 to 129 °C,–
CCNC(=O)NCCN(C)CCNc1cc(N2CCCC2)nc(N2CCCC2)n1 [Example 18],–,≤ 5 µM
"O=C(NCCOCCNc1cc(N2CCCC2)nc(N2CCCC2)n1)Nc1ccc(Cl)c(C(F)(F)F)c1 [Example 20, N-[4-chloro-3-(trifluoromethyl)phenyl]-N′-(2-{2-[(2,6-dipyrrolidin-1-ylpyrimidin-4-yl)amino]ethoxy}ethyl)urea]",79 to 81 °C,≤ 5 µM
"CN(CCNC(=S)Nc1ccc(Cl)cc1)CCNc1cc(N2CCCC2)nc(N2CCCC2)n1 [Example 22, N-(4-chlorophenyl)-N′-{2-[{2-[(2,6-dipyrrolidin-1-ylpyrimidin-4-yl)amino]ethyl}(methyl)amino]ethyl}thiourea]",127 to 129 °C,≤ 1 µM
"CCNC(=S)NCCN(C)CCNc1cc(N2CCCC2)nc(N2CCCC2)n1 [Example 28, N-{2-[{2-[(2,6-dipyrrolidin-1-ylpyrimidin-4-yl)amino]ethyl}(methyl)amino]ethyl}-N′-ethylthiourea]",82 to 84 °C,≤ 1 µM
"CN(CCNC(=S)NCC1CCCO1)CCNc1cc(N2CCCC2)nc(N2CCCC2)n1 (stereo not shown) [Example 31, N-{2-[{2-[(2,6-dipyrrolidin-1-ylpyrimidin-4-yl)amino]ethyl}(methyl)amino]ethyl}-N′-(tetrahydrofuran-2-ylmethyl)thiourea]",120 to 122 °C,≤ 5 µM
"CN(CCNC(=S)Nc1ccc(N2CCOCC2)nc1)CCNc1cc(N2CCCC2)nc(N2CCCC2)n1 [Example 32, N-{2-[{2-[(2,6-dipyrrolidin-1-ylpyrimidin-4-yl)amino]ethyl}(methyl)amino]ethyl}-N′-(6-morpholin-4-ylpyridin-3-yl)thiourea]",116 to 118 °C,≤ 5 µM
"CN(CCNC(=S)Nc1c(F)c(F)c(F)c(F)c1F)CCNc1cc(N2CCCC2)nc(N2CCCC2)n1 [Example 34, N-{2-[{2-[(2,6-dipyrrolidin-1-ylpyrimidin-4-yl)amino]ethyl}(methyl)amino]ethyl}-N′-(pentafluorophenyl)thiourea]",92 to 94 °C,≤ 5 µM
"CN(CCNC(=S)Nc1cccc(F)c1)CCNc1cc(N2CCCC2)nc(N2CCCC2)n1 [Example 39, N-{2-[{2-[(2,6-dipyrrolidin-1-ylpyrimidin-4-yl)amino]ethyl}(methyl)amino]ethyl}-N′-(3-fluorophenyl)thiourea]",118 to 120 °C,≤ 1 µM
"CN(CCNC(=S)Nc1ccc(F)cc1F)CCNc1cc(N2CCCC2)nc(N2CCCC2)n1 [Example 40, N-(2,4-difluorophenyl)-N′-{2-[{2-[(2,6-dipyrrolidin-1-ylpyrimidin-4-yl)amino]ethyl}(methyl)amino]ethyl}thiourea]",124 to 126 °C,≤ 1 µM
"FC(F)(F)c1cc(NC(=S)NCCCCCNc2cc(N3CCCC3)nc(N3CCCC3)n2)ccc1Cl [Example 57, N-[4-chloro-3-(trifluoromethyl)phenyl]-N′-{5-[(2,6-dipyrrolidin-1-ylpyrimidin-4-yl)amino]pentyl}thiourea]",85 to 87 °C,–
"CN(CCNC(=S)Nc1ccc(Cl)cc1)CCNc1cc(N2CCOCC2)nc(N2CCOCC2)n1 [Example 66, N-(4-chlorophenyl)-N′-{2-[{2-[(2,6-dimorpholin-4-ylpyrimidin-4-yl)amino]ethyl}(methyl)amino]ethyl}thiourea]",81 to 83 °C,–
"CCN(CC)c1cc(NCCN(C)CCNC(=S)Nc2ccc(Cl)cc2)nc(N(CC)CC)n1 [Example 71, N-{2-[(2-{[2,6-bis(diethylamino)pyrimidin-4-yl]amino}ethyl)(methyl)amino]ethyl}-N′-(4-chlorophenyl)thiourea]",–,≤ 1 µM
"CN(CCNC(=O)c1cnc2ccccc2n1)CCNc1cc(N2CCCC2)nc(N2CCCC2)n1 [Example 82, N-{2-[{2-[(2,6-dipyrrolidin-1-ylpyrimidin-4-yl)amino]ethyl}(methyl)amino]ethyl}quinoxaline-2-carboxamide]",146 to 148 °C,–
